Measured values: patent US11957783B2, “Topical immunosensitizers to treat viral and fungal infections” (Squarex, LLC, priority 2018, dated 2024)

Tested on: peripheral blood mononuclear cells (PBMC)
Experiment: Cytokine and immune-function gene expression of PBMC in vitro (qRT-PCR, 41 immune-related genes)
Format: cell-based, human
Procedure: After a screening visit at which blood was drawn to test for IgG antibody against HSV-1 and subjects were interviewed for inclusion/exclusion criteria, selected subjects returned for blood draws on day 1. After the blood draw on day 1, subjects in group A only were dosed with SADBE. A petrolatum donut was applied with a cotton swab to form about a 1 cm diameter donut on skin on the inner aspect of the upper arm. Then a separate cotton swab was dipped in a 2% SADBE solution (w/v) in DMSO, and the swab was then used to apply about 10-20 mg of solution over about a 1 cm diameter circle within the petrolatum donut. Immediately after application, the application site was covered with TEGADERM. Subjects were advised to remove the TEGADERM and rinse and wipe the spot three hours later. The group A subjects then returned for blood draws on days 15 and 57 and were queried about adverse events on those dates.
PBMC were isolated using SepMate PBMC isolation tubes (Stem Cell Technologies, Vancouver, Canada) and Ficoll-Paque according to the manufacturer's instructions. PBMC were isolated and suspended in negative control medium at 2 million cells/ml. PBMC suspension (100 μL) was added to 100 μL of medium in quadruplicate in 96-well plates. The plates were prepared in advance and stored at −70° C. The wells were in five different conditions in quadruplicate with these final concentrations after addition of the 100 μL of PBMC suspension in negative control medium. • 1. Negative control in medium (RPMI with glutamine and pen/strep, supplemented with 10% human A/B serum). • 2. Medium plus 16 μg/ml protein from heat-inactivated HSV-1-infected Vero cell extracts. • 3. Medium plus heat-inactivated HSV-1 cell-free virus at a final 7.5 million pfu/ml. • 4. Medium plus Candida cell extract. (Greer item number M15A50, 20,000 pnu/ml allergenic extract mixed molds Candida albicans, was diluted 1/50 into medium). • 5. Positive control, medium plus 10 μg/ml concanavalin A.
Two plates were created for each subject at each collection point. One plate was incubated for 2 days at 37° C. in a humidified 5% CO2 atmosphere and then RNA was isolated from the pooled contents of the 4 wells of a given condition for a specific patient, and the RNA was stored at −70° C. and subsequently used for quantitative real time PCR analysis of gene expression of 41 immune-related genes.
As noted above, after 2 days of growth of the PBMC in a 37° C. humidified 5% CO2 incubator in a 96-well plate, four wells of a single condition (negative control, positive control, heat-inactivated HSV-1, HSV-1-infected cell extracts, or Candida extract) with cells from a single subject (200 μL in each well) were pooled, and the RNA was immediately isolated with Trizol reagent and chloroform by Qiagen RNeasy MiniElute clean up kit Qiagen cat #74204, according to manufacturer's instructions into a final volume of 13 μL, and then flash frozen on powdered dry ice, and stored at −70° C. in aliquots of 3 μL for RNA quantification and 10 μL for PCR analysis.
RNA was preamplified with the Qiagen RT2 PreAMP cDNA synthesis kit (Ref. 330451) and custom RT2 PreAmp primer mix (Ref. 330141) starting with about 50 ng RNA according to the procedure of RT preamp cDNA synthesis handbook date March 2011, pages 17-20. The amplification reactions (final 120 μL) were frozen at −70° C. and used for qPCR analysis the next day.
qPCR was done with the Qiagen RT PCR profiler gene analysis kit (catalog number 330451) using RT2 Sybr Green Rox qPCR Mastermix (24) (Part 330523) and Custom RT2 PCR array plates (Ref. 330171). For this 675 μL 2×RT2 SYBR green mastermix, 51 μL pre-AMP synthesis reaction, and 623 μL RNase free water were mixed, and then 25 μL of the mixture was added to 48 wells on the left or right half of the custom PCR plate. The PCR instrument was Applied Biosystems 7900HT fast real time PCR. […]

[1] = Group A, HSV-infected cell extracts

CCCCOc1c(OCCCC)c(=O)c1=O [SADBE, 3,4-Dibutoxy-3-cyclobutene-1,2-dione]
Ratio of absolute IFNG gene expression in group A vs. Groups B + C pooled (Candida, group A day 57 after SADBE): 2.684 | CCL2 ratio of PBMC absolute gene expression day 15/day 1 (Group A, Candida): 0.73 | CCL2 ratio of PBMC absolute gene expression day 57/day 1 (Group A, Candida): 1.16 | CCL3 ratio of PBMC absolute gene expression day 15/day 1 (Group A, Candida): 0.33 | CCL3 ratio of PBMC absolute gene expression day 57/day 1 (Group A, Candida): 1.79 | CCL7 ratio of PBMC absolute gene expression day 15/day 1 (Group A, Candida): 0.66 | CCL7 ratio of PBMC absolute gene expression day 57/day 1 (Group A, Candida): 2.03 | CCR5 ratio of PBMC absolute gene expression day 15/day 1 (Group A, Candida): 1.16 | CCR5 ratio of PBMC absolute gene expression day 57/day 1 (Group A, Candida): 1.42 | CD80 ratio of PBMC absolute gene expression day 15/day 1 (Group A, Candida): 0.75 | CD80 ratio of PBMC absolute gene expression day 57/day 1 (Group A, Candida): 1.57 | CXCL2 ratio of PBMC absolute gene expression day 15/day 1 (Group A, Candida): 0.39 | CXCL2 ratio of PBMC absolute gene expression day 57/day 1 (Group A, Candida): 1.10 | CXCL5 ratio of PBMC absolute gene expression day 15/day 1 (Group A, Candida): 0.46 | CXCL5 ratio of PBMC absolute gene expression day 57/day 1 (Group A, Candida): 1.45 | CXCL9 ratio of PBMC absolute gene expression day 15/day 1 (Group A, Candida): 2.52 | CXCL9 ratio of PBMC absolute gene expression day 57/day 1 (Group A, Candida): 14.21 | CXCL10 ratio of PBMC absolute gene expression day 15/day 1 (Group A, Candida): 2.87 | CXCL10 ratio of PBMC absolute gene expression day 57/day 1 (Group A, Candida): 12.8 | CXCL11 ratio of PBMC absolute gene expression day 15/day 1 (Group A, Candida): 1.06 | CXCL11 ratio of PBMC absolute gene expression day 57/day 1 (Group A, Candida): 2.53 | DDX58 ratio of PBMC absolute gene expression day 15/day 1 (Group A, Candida): 1.08 | DDX58 ratio of PBMC absolute gene expression day 57/day 1 (Group A, Candida): 1.29 | FOXP3 ratio of PBMC absolute gene expression day 15/day 1 (Group A, Candida): 1.16 | FOXP3 ratio of PBMC absolute gene expression day 57/day 1 (Group A, Candida): 2.01 | GATA3 ratio of PBMC absolute gene expression day 15/day 1 (Group A, Candida): 1.12 | GATA3 ratio of PBMC absolute gene expression day 57/day 1 (Group A, Candida): 0.28 | ICAM1 ratio of PBMC absolute gene expression day 15/day 1 (Group A, Candida): 1.03 | ICAM1 ratio of PBMC absolute gene expression day 57/day 1 (Group A, Candida): 1.27 | IFNA1 ratio of PBMC absolute gene expression day 15/day 1 (Group A, Candida): 1.42 | IFNA1 ratio of PBMC absolute gene expression day 57/day 1 (Group A, Candida): 2.13 | IFNB1 ratio of PBMC absolute gene expression day 15/day 1 (Group A, Candida): 1.03 | IFNB1 ratio of PBMC absolute gene expression day 57/day 1 (Group A, Candida): 0.93 | IFNG ratio of PBMC absolute gene expression day 15/day 1 (Group A, Candida): 0.81 | IFNG ratio of PBMC absolute gene expression day 57/day 1 (Group A, Candida): 8.54 | IL1B ratio of PBMC absolute gene expression day 15/day 1 (Group A, Candida): 0.17 | IL1B ratio of PBMC absolute gene expression day 57/day 1 (Group A, Candida): 1.73 | IL1R1 ratio of PBMC absolute gene expression day 15/day 1 (Group A, Candida): 0.69 | IL1R1 ratio of PBMC absolute gene expression day 57/day 1 (Group A, Candida): 0.9 | IL1RN ratio of PBMC absolute gene expression day 15/day 1 (Group A, Candida): 1 | IL1RN ratio of PBMC absolute gene expression day 57/day 1 (Group A, Candida): 1.91 | IL2 ratio of PBMC absolute gene expression day 15/day 1 (Group A, Candida): 0.75 | IL2 ratio of PBMC absolute gene expression day 57/day 1 (Group A, Candida): 6.31 | IL4 ratio of PBMC absolute gene expression day 15/day 1 (Group A, Candida): 1.12 | IL4 ratio of PBMC absolute gene expression day 57/day 1 (Group A, Candida): 1.52 | IL5 ratio of PBMC absolute gene expression day 15/day 1 (Group A, Candida): 1.23 | IL5 ratio of PBMC absolute gene expression day 57/day 1 (Group A, Candida): 1.10 | IL8 ratio of PBMC absolute gene expression day 15/day 1 (Group A, Candida): 0.44 | IL8 ratio of PBMC absolute gene expression day 57/day 1 (Group A, Candida): 1.89 | IL10 ratio of PBMC absolute gene expression day 15/day 1 (Group A, Candida): 0.6 | IL10 ratio of PBMC absolute gene expression day 57/day 1 (Group A, Candida): 1.12 | IL12A ratio of PBMC absolute gene expression day 15/day 1 (Group A, Candida): 1.02 | IL12A ratio of PBMC absolute gene expression day 57/day 1 (Group A, Candida): 1.64 | IL12B ratio of PBMC absolute gene expression day 15/day 1 (Group A, Candida): 0.78 | IL12B ratio of PBMC absolute gene expression day 57/day 1 (Group A, Candida): 3.61 | IL13 ratio of PBMC absolute gene expression day 15/day 1 (Group A, Candida): 0.6 | IL13 ratio of PBMC absolute gene expression day 57/day 1 (Group A, Candida): 4.28 | IL15 ratio of PBMC absolute gene expression day 15/day 1 (Group A, Candida): 1.09 | IL15 ratio of PBMC absolute gene expression day 57/day 1 (Group A, Candida): 2.18 | IL16 ratio of PBMC absolute gene expression day 15/day 1 (Group A, Candida): 1.02 | IL16 ratio of PBMC absolute gene expression day 57/day 1 (Group A, Candida): 0.81 | JAK2 ratio of PBMC absolute gene expression day 15/day 1 (Group A, Candida): 1.1 | JAK2 ratio of PBMC absolute gene expression day 57/day 1 (Group A, Candida): 1.68 | LTA ratio of PBMC absolute gene expression day 15/day 1 (Group A, Candida): 1.15 | LTA ratio of PBMC absolute gene expression day 57/day 1 (Group A, Candida): 1.94 | LYZ ratio of PBMC absolute gene expression day 15/day 1 (Group A, Candida): 2.22 | LYZ ratio of PBMC absolute gene expression day 57/day 1 (Group A, Candida): 0.93 | MX1 ratio of PBMC absolute gene expression day 15/day 1 (Group A, Candida): 1.28 | MX1 ratio of PBMC absolute gene expression day 57/day 1 (Group A, Candida): 1.34 | NOD1 ratio of PBMC absolute gene expression day 15/day 1 (Group A, Candida): 1.19 | NOD1 ratio of PBMC absolute gene expression day 57/day 1 (Group A, Candida): 1.18 | SPP1 ratio of PBMC absolute gene expression day 15/day 1 (Group A, Candida): 2.32 | SPP1 ratio of PBMC absolute gene expression day 57/day 1 (Group A, Candida): 7.34 | STAT1 ratio of PBMC absolute gene expression day 15/day 1 (Group A, Candida): 1.12 | STAT1 ratio of PBMC absolute gene expression day 57/day 1 (Group A, Candida): 3.36 | STAT4 ratio of PBMC absolute gene expression day 15/day 1 (Group A, Candida): 1.07 | STAT4 ratio of PBMC absolute gene expression day 57/day 1 (Group A, Candida): 1.76 | TNF ratio of PBMC absolute gene expression day 15/day 1 (Group A, Candida): 0.85 | TNF ratio of PBMC absolute gene expression day 57/day 1 (Group A, Candida): 1.22 | TNFSF10 ratio of PBMC absolute gene expression day 15/day 1 (Group A, Candida): 1.02 | TNFSF10 ratio of PBMC absolute gene expression day 57/day 1 (Group A, Candida): 1.52 | TNFSF13B ratio of PBMC absolute gene expression day 15/day 1 (Group A, Candida): 1.14 | TNFSF13B ratio of PBMC absolute gene expression day 57/day 1 (Group A, Candida): 1.62 | CCL2 ratio of PBMC absolute gene expression day 15/day 1 [1]: 0.88 | CCL2 ratio of PBMC absolute gene expression day 57/day 1 [1]: 1.21 | CCL3 ratio of PBMC absolute gene expression day 15/day 1 [1]: 1.31 | CCL3 ratio of PBMC absolute gene expression day 57/day 1 [1]: 4.60 | CCL7 ratio of PBMC absolute gene expression day 15/day 1 [1]: 0.92 | CCL7 ratio of PBMC absolute gene expression day 57/day 1 [1]: 0.75 | CCR5 ratio of PBMC absolute gene expression day 15/day 1 [1]: 1.00 | CCR5 ratio of PBMC absolute gene expression day 57/day 1 [1]: 0.93 | CD80 ratio of PBMC absolute gene expression day 15/day 1 [1]: 0.90 | CD80 ratio of PBMC absolute gene expression day 57/day 1 [1]: 0.93 | CXCL2 ratio of PBMC absolute gene expression day 15/day 1 [1]: 1.02 | CXCL2 ratio of PBMC absolute gene expression day 57/day 1 [1]: 2.79 | CXCL5 ratio of PBMC absolute gene expression day 15/day 1 [1]: 1.24 | CXCL5 ratio of PBMC absolute gene expression day 57/day 1 [1]: 6.03 | CXCL9 ratio of PBMC absolute gene expression day 15/day 1 [1]: 1.12 | CXCL9 ratio of PBMC absolute gene expression day 57/day 1 [1]: 0.91 | CXCL10 ratio of PBMC absolute gene expression day 15/day 1 [1]: 0.82 | CXCL10 ratio of PBMC absolute gene expression day 57/day 1 [1]: 0.49 | CXCL11 ratio of PBMC absolute gene expression day 15/day 1 [1]: 0.53 | CXCL11 ratio of PBMC absolute gene expression day 57/day 1 [1]: 0.31 | DDX58 ratio of PBMC absolute gene expression day 15/day 1 [1]: 0.72 | DDX58 ratio of PBMC absolute gene expression day 57/day 1 [1]: 0.94 | FOXP3 ratio of PBMC absolute gene expression day 15/day 1 [1]: 1.15 | FOXP3 ratio of PBMC absolute gene expression day 57/day 1 [1]: 1.11 | GATA3 ratio of PBMC absolute gene expression day 15/day 1 [1]: 2.84 | GATA3 ratio of PBMC absolute gene expression day 57/day 1 [1]: 2.6 | ICAM1 ratio of PBMC absolute gene expression day 15/day 1 [1]: 1.05 | ICAM1 ratio of PBMC absolute gene expression day 57/day 1 [1]: 0.77 | IFNA1 ratio of PBMC absolute gene expression day 15/day 1 [1]: 0.80 | IFNA1 ratio of PBMC absolute gene expression day 57/day 1 [1]: 1.29 | IFNB1 ratio of PBMC absolute gene expression day 15/day 1 [1]: 0.65
